Results: article PMC2846458 (Nature medicine, 2008)
Changes are numbered by the printed parent chain.

Assays:
ALK2^Q207D = biological target: T1, ALK2^Q207D (Homo sapiens, UniProt Q04771, Q207D); test: Id1 promoter activity; format: cell-based
T1 sequence (Q04771 21-509 Q207D): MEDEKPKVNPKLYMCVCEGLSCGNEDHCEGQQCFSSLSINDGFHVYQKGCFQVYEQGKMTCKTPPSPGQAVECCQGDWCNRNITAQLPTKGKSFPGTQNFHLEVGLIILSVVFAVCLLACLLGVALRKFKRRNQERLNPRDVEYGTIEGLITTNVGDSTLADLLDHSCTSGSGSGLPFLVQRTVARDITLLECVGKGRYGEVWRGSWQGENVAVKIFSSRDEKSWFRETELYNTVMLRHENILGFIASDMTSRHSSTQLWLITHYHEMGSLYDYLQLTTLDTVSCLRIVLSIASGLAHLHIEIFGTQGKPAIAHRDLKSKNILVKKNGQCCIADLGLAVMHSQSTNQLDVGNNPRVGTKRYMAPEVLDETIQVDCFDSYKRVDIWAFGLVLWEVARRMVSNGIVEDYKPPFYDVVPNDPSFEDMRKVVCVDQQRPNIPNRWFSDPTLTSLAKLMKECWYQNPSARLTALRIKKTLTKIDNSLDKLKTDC

C2C12 cells = test: BMP4-induced alkaline phosphatase activity; format: cell-based; conditions: 100 nM, BMP4 10 ng ml^-1, even when administered 12 h after BMP stimulation
TGF-β signaling = test: Immunoblot of TGF-β signaling in PASMCs; format: cell-based; conditions: Mus musculus, PASMC, read-out: IC50 for TGF-β signaling
[1] = Tolerability of treatment in mice
ALK2^R206H = biological target: T2, ALK2^R206H (Homo sapiens, UniProt Q04771, R206H); test: Id1 promoter activity; format: cell-based
T2 sequence (Q04771 21-509 R206H): T1 sequence (Q04771 21-509 Q207D) with R186H, D187Q

[2] = system: Ad.Cre-injected conditional caALK2–transgenic mice; test: Ectopic ossification in Ad.Cre-injected conditional caALK2-transgenic mice; format: in vivo, mouse
[3] = 3 mg kg^-1 i.p. every 12 h, lesions attenuated in the remainder

| Compound | effect on transcriptional activity induced by ALK2^Q207D (ALK2^Q207D) | effect on induction of alkaline phosphatase activity by BMP4 (C2C12 cells) | IC50 (TGF-β signaling) | fractures, osteopenia, skeletal abnormalities ([1]; 3 mg kg^-1 i.p. every 12 h, up to P60) | effect on transcriptional activity induced by ALK2^R206H (ALK2^R206H) | endochondral bone in hindlimbs (histology) ([2]; 3 mg kg^-1 i.p. every 12 h) | phosphorylated Smad1/5/8 and Runx2 staining in left gastrocnemius ([2]; 3 mg kg^-1 i.p. every 12 h, P11) | passive range of motion in the ankle joint ([2]; 3 mg kg^-1 i.p. every 12 h, P15 and P30, versus vehicle) | fraction of mice in which ectopic bone was prevented at P30 [2, 3] | fraction of mice in which ectopic bone was prevented at P60 [2, 3] | radiographic lesions at P15 ([2]; 3 mg kg^-1 i.p. every 12 h after Ad.Cre on P7) | effect on weight and growth ([1]; wild-type or mutant mice, during drug administration) | ectopic calcifications and immobility at P30 ([2]; 10 mg kg^-1 d^-1 i.p. starting 1 d after Ad.Cre at P7, versus vehicle) |
| --- | --- | --- | --- | --- | --- | --- | --- | --- | --- | --- | --- | --- | --- |
| c1ccc2c(-c3cnn4cc(-c5ccc(N6CCNCC6)cc5)cnc34)ccnc2c1 [LDN-193189, 4-[6-(4-piperazin-1-ylphenyl)pyrazolo[1,5-a]pyrimidin-3-yl]quinoline] | blocked the transcriptional activity | inhibited the induction of alkaline phosphatase activity | ≥ 1000 nM | without inducing fractures, osteopenia or skeletal abnormalities | blocked the transcriptional activity | substantially less endochondral bone | diminished | significant rescue of function | approximately two-thirds | one-third | prevented radiographic lesions at P15 in all mice examined | – | – |
| C[C@@H]1C[C@H]2[C@@H]3CCC4=CC(=O)C=C[C@]4(C)[C@@]3(F)[C@@H](O)C[C@]2(C)[C@@]1(O)C(=O)CO [dexamethasone, reference compound] | – | – | – | – | – | – | – | – | – | – | – | severely impaired weight gain | markedly reduced |
